This note sets out measurements from ChEMBL document CHEMBL1151620, “Rollinone, a new cytotoxic acetogenin from Rollinia papilionella” (1984).

Experiment [1] has as its system P388. Nature of the experiment: Cytotoxicity against mouse P388 cells. The format is functional.
For experiment [2], the system named is P388. In words: In vivo antitumor activity against mouse P388 lymphocytic leukemia in mouse at 1.4 mg/kg. The format is functional.

SMILES strings stand for the structures.

In the case of `CCCCCCCCCCC(O)C1CCC(C2CCC(C(O)C(=O)CCCCCCCCCCCC3CC(C)OC3=O)O2)O1` (configuration not stated) [ROLLINONE], in the experiment with P388 [1], the ED50 is recorded as <1 ×10⁻⁵ ug/ml. In addition, the T/C – broadly, the result in the treated group divided by that in the control group, in per cent – with P388 [2] worked out at 147%.
